The supplement of paper PMC11208160

Assay: recombinant barcode read abundance after kanamycin selection (control-corrected) (log10(CPM+1)); higher = more efficient recombination; sequences stand for … in AGTGCAGAGAAAATCGGCCAGTTTTCTCTGCCTGCAGTCCGCATGCCGT…AGATTTATGCAGCGGACTGCCTTTCTCCCAAAGTGATAAACCGGACAGTATCATGGACCGGTTTTCCCGGTAATCCGTATTTGCAAGGTTGGTTTCACT; site = the 11-nt target
Summary of the method: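 Pooled E. coli screen pairing targets with IS621 bridge RNA target-binding loops. Each oligo (promoter, target, barcode, J23119-driven first 104 bridge RNA bases) was Gibson-cloned into a vector with the remaining 73 bp and T7-inducible recombinase, then co-electroporated with a donor plasmid. Two replicates each were plated on chloramphenicol/ampicillin LB agar (control) or chloramphenicol/ampicillin/kanamycin with 0.1 mM IPTG. Recombination efficiency is recombinant-junction barcode counts as CPM, averaged, control-corrected, reported as log10(CPM+1).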
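Also: IS621 recombinase and bridge RNA in Escherichia coli cells.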

Sequence | recombinant barcode read abundance (log10)
TGACAGTCTTGGGTTCTAACCTGTTGCAG (site CACTTAACTTG) | 0.0862
TGACAGTCTTGGGTTCTAACCTGTTGCAG (site TGACAGTCTCT) | 1.42
TGACATGCTTGGGTTCTAACCTGTTGCCT (site TGAAATGCTAG) | 0.108
TGACATGCTTGGGTTCTAACCTGTTGCCT (site TGACATGCTAG) | 1.37
TGACATGCTTGGGTTCTAACCTGTTGCCT (site TGAGATGCTAG) | 0.0442
TGACATGCTTGGGTTCTAACCTGTTGCCT (site TGATATGCTAG) | 0.172
TGACCCTCTTGGGTTCTAACCTGTTGCCT (site AGACCCTCTAG) | 0.703
TGACCCTCTTGGGTTCTAACCTGTTGCCT (site CGACCCTCTAG) | 0.465
TGACCCTCTTGGGTTCTAACCTGTTGCCT (site GGACCCTCTAG) | 0.0227
TGACCCTCTTGGGTTCTAACCTGTTGCCT (site TGACCCTCTAG) | 2.39
TGACGTCCTTGGGTTCTAACCTGTTGCAT (site TGACGTCCTAA) | 0.0504
TGACGTCCTTGGGTTCTAACCTGTTGCAT (site TGACGTCCTAC) | 0.0943
TGACGTCCTTGGGTTCTAACCTGTTGCAT (site TGACGTCCTAG) | 0.0926
TGACGTCCTTGGGTTCTAACCTGTTGCAT (site TGACGTCCTAT) | 0.695
TGACGTCCTTGGGTTCTAACCTGTTGCTT (site TGACGTCCTAA) | 0.293
TGACGTCCTTGGGTTCTAACCTGTTGCTT (site TGACGTCCTAC) | 0.033
TGACGTCCTTGGGTTCTAACCTGTTGCTT (site TGACGTCCTAG) | 0.122
TGACGTCCTTGGGTTCTAACCTGTTGCTT (site TGACGTCCTAT) | 0.251

Sequence | recombinant barcode read abundance (log10)
TGAGATGCTTGGGTTCTAACCTGTTGCCT (site TGAAATGCTAG) | 0.199
TGAGATGCTTGGGTTCTAACCTGTTGCCT (site TGACATGCTAG) | 0.026
TGAGATGCTTGGGTTCTAACCTGTTGCCT (site TGAGATGCTAG) | 1.72
TGAGATGCTTGGGTTCTAACCTGTTGCCT (site TGATATGCTAG) | 0.124
TGAGATTCTTGGGTTCTAACCTGTTGCAT (site TGAGATTCTAT) | 1.55
TGAGATTCTTGGGTTCTAACCTGTTGCAT (site TGTGATCCTAT) | 0.0159
TGAGCGGCTTGGGTTCTAACCTGTTGCCT (site TGAGAGGCTAG) | 0.143
TGAGCGGCTTGGGTTCTAACCTGTTGCCT (site TGAGCGGCTAG) | 0.438
TGAGCGGCTTGGGTTCTAACCTGTTGCCT (site TGAGGGGCTAG) | 0.00469
TGAGCGGCTTGGGTTCTAACCTGTTGCCT (site TGAGTGGCTAG) | 0.0667
TGAGTACCTTGGGTTCTAACCTGTTGCTT (site TGAGTACCTAA) | 1.39
TGAGTACCTTGGGTTCTAACCTGTTGCTT (site TGAGTCCCTAA) | 0.0336
TGAGTACCTTGGGTTCTAACCTGTTGCTT (site TGAGTGCCTAA) | 0.856
TGAGTACCTTGGGTTCTAACCTGTTGCTT (site TGAGTTCCTAA) | 0.144
TGAGTCCCTTGGGTTCTAACCTGTTGCAG (site AAGTGGTCTTA) | 0.149
TGAGTCCCTTGGGTTCTAACCTGTTGCAG (site TGAGTCCCTCT) | 2.79
TGAGTCCCTTGGGTTCTAACCTGTTGCTA (site TGAGTCCCTTA) | 2.27
TGAGTCCCTTGGGTTCTAACCTGTTGCTA (site TGGGTCCCTAA) | 0.0131
